Values joined by “and” are separate entries in the source; they are usually repeats but may differ in a detail not shown here. Equal entries are not always repeated. Where a SMILES comes first, the peptide text is derived from it. [ ]: non-standard residue; d: D form. The star is where a group is joined. X1 = CCCCCCCCCCCCCCCCCC(=O)NCCCCCCN*
Key:
[1] = tested on: B16-F1 murine melanoma cells; experiment: Intracellular cAMP in B16-F1 melanoma cells; assay type: cell-based; settings: for cAMP levels (in words): peptide at 1 μg/ml; for EC50: B16-F1 cells, 10^-4-10^-11 M, 30 min, IBMX
Protocol: B16-F1 (melanoma cell line) cells from American Type Culture Collection (Manassas, Va.) were seeded into flat bottom 96 well plates at 5×10^4/well and cultured overnight in DMEM (Cambrex, Walkersville, Md.) supplemented with 2 mM glutamine, antibiotics (100 U/ml penicillin and 100 […]) and 10% heat-inactivated fetal bovine serum (Invitrogen, Grand Island, N.Y.). […] Cells were lysed and intracellular cAMP levels were measured by an enzyme immunoassay kit (Amersham Biosciences, Piscataway, N.J.). Forskolin (Sigma, St. Louis, Mo.) at 100 μM served as positive controls.
cAMP levels in B16-F1 melanoma cells after treatment with native α-MSH, RI α-MSH, or a scrambled control peptide were examined. The […] melanoma cell line expresses a high number of MCR1 receptors (3000-4000 receptors/cell) compared with macrophages cell lines which express only 100-200 receptors/cell. Therefore we selected to examine the effect of the RI α-MSH treatment on the melanoma cell line. Murine melanoma B16-F1 cells were treated with native α-MSH, RI α-MSH, or control scrambled peptide at concentrations 1 pg/ml-1 μg/ml. After 30 min, cells were lysed and intracellular cAMP was measured by an enzyme immunoassay. […] However, a higher concentration of RI α-MSH (100 ng/ml) was necessary to increase cAMP compared with native α-MSH which increased cAMP at a 10 pg/ml concentration. This difference in concentration of peptide necessary to increase cAMP levels may be the result of the binding affinity to the MCR1 receptor.
Murine melanoma B16-F1 cells were treated with native α-MSH, RI α-MSH, scrambled peptide control, KPV, or alanine substituted peptides of RI α-MSH at 1 μg/ml (FIG. 7B). […] Peptides designated 810, 811, and 812 have alanine substitutions in the central core tetrapeptide sequence (D-Trp D-Arg D-Phe D-His region; AA 5-8) (variant disclosed in SEQ ID NO:2) proposed to be involved in native α-MSH binding to the melanocortin receptor and its biological activity. […] The residues in the core tetrapeptide (wrfh) (variant disclosed in SEQ ID NO:2) and to a lesser extent, the methionine 4 of RI-MSH are critical for binding to MC1R.
B16-F1 murine melanoma cells were cultured into 96 well plates 5×10^4 cells/well overnight in media with L-glutamine and pen/strep and FBS. Media was removed and new media with IBMX was added to the cells for 1 hr. Cells were then treated with RI α-MSH, or RI α-MSH peptide analogs (890, 891, 892, 893, 894 or 895). Cells were lysed after 30 min using a cAMP assay kit and supernatant were used in the assay. Forskolin at 10 μM served as positive controls.
Intracellular cAMP was measured using a cAMP competition Assay Kit (Amersham Biosciences). All cell lysate samples were diluted 1:100 for analysis.
Murine melanoma B16-F1 cells were treated with RI α-MSH, or RI α-MSH analogs (869, 872, 880, 878, 886 and 890-895) at a concentration range of 10^−4-10^−11 M. cAMP levels from cells treated with RI α-MSH, or RI α-MSH analogs. […] See FIG. 22 for graphical data and Table 2 for EC50 data.

MC1R = MC1R (Homo sapiens, UniProt Q01726); experiment: Competitive binding with 125I-NDP-MSH, HEK293 membrane preparations, MC1R; settings: for Ki: Ki MC1R, competition with 125I-NDP-MSH;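 on all read-outs here: Read-out: receptor-bound radioligand retained by filtration and counted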
Chain of MC1R (Q01726 whole entry): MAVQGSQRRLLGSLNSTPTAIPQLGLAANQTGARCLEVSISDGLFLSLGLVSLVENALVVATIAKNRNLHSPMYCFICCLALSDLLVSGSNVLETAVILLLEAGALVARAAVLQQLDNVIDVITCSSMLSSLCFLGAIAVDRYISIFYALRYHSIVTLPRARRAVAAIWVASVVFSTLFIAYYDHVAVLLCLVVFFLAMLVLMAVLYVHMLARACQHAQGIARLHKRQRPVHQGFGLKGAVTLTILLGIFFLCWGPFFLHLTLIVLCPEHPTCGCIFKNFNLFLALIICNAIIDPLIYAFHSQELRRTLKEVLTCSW
Protocol: (§1) Binding analysis was done by Cerep laboratories (Paris, France) with coded samples.
(§2) The mixtures were filtered through 96-well GFC filters (Millipore, Billerica, Mass.), washed 3 times with binding buffer without BSA, dried and counted.
(§3) A competitive binding assay using a MCR panel including MCR 1, 3, 4, and 5 was performed.

MC5R = MC5R (Homo sapiens, UniProt P33032); experiment: Competitive binding with 125I-NDP-MSH, HEK293 membrane preparations, MC5R; settings: Ki MC5R, competition with 125I-NDP-MSH; cells noted in μM
Chain of MC5R (P33032 whole entry): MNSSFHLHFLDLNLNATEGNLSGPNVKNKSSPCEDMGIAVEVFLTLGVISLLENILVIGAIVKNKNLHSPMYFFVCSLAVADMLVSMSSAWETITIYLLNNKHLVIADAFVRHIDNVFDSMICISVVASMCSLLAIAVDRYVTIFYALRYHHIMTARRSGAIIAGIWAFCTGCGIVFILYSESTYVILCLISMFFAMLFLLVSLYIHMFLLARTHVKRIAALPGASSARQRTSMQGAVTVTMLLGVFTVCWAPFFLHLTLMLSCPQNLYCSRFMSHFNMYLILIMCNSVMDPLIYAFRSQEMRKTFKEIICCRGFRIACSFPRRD
Protocol: as §1, §2, §3

MC3R = MC3R (Homo sapiens, UniProt P41968); experiment: Competitive binding with 125I-NDP-MSH, HEK293 membrane preparations, MC3R
Chain of MC3R (P41968 whole entry): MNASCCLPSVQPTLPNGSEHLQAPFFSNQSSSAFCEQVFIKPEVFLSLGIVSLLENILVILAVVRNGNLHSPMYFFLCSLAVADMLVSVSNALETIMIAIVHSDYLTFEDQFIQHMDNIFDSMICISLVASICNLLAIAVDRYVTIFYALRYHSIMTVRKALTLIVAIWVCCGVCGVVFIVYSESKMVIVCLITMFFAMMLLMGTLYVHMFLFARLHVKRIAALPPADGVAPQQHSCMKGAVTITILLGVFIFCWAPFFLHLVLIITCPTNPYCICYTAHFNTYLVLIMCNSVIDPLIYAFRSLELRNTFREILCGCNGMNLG
Protocol: as §1, §2, §3

| Ki (MC1R) [nM] | SMILES | cAMP levels (in words) [1] | further results |
| --- | --- | --- | --- |
| – | C=C[C@@]1(C)CC(=O)[C@]2(O)[C@@]3(C)[C@@H](O)CCC(C)(C)[C@@H]3[C@H](O)[C@H](OC(C)=O)[C@@]2(C)O1 [Forskolin, reference compound] | – | cAMP ([1]; 100 μM, positive control): 3455.39±406.6 and 3294.82±54.53 |
| 1400 ± 190 | CC(=O)N[C@@H](C(=O)N1CCC[C@@H]1C(=O)N[C@H](CCCCN)C(=O)NCC(=O)N[C@H](Cc1c[nH]c2ccccc12)C(=O)N[C@H](CCCNC(=N)N)C(=O)N[C@H](Cc1ccccc1)C(=O)N[C@H](Cc1c[nH]cn1)C(=O)N[C@H](CCC(=O)O)C(=O)N[C@H](C)C(=O)N[C@H](CO)C(=O)N[C@H](Cc1ccc(O)cc1)C(=O)N[C@H](CO)C(N)=O)C(C)C [compound 807, vpkGwrfheasys] (Ac-[dV][dP][dK]G[dW][dR][dF][dH][dE][dA][dS][dY][dS]-NH2) | reduction in cAMP accumulation | – |
| 1200 ± 270 | CSCC[C@@H](NC(=O)[C@@H](CCC(=O)O)NC(=O)[C@@H](C)NC(=O)[C@@H](Cc1ccccc1)NC(=O)[C@@H](CCCNC(=N)N)NC(=O)[C@@H](Cc1c[nH]c2ccccc12)NC(=O)CNC(=O)[C@@H](CCCCN)NC(=O)[C@H]1CCCN1C(=O)[C@H](NC(C)=O)C(C)C)C(=O)N[C@H](CO)C(=O)N[C@H](Cc1ccc(O)cc1)C(=O)N[C@H](CO)C(N)=O [compound 809, vpkGwrfaemsys] (Ac-[dV][dP][dK]G[dW][dR][dF][dA][dE][dM][dS][dY][dS]-NH2) | reduction in cAMP accumulation | – |
| – | CSCC[C@@H](NC(=O)[C@@H](CCC(=O)O)NC(=O)[C@@H](Cc1c[nH]cn1)NC(=O)[C@@H](C)NC(=O)[C@@H](CCCNC(=N)N)NC(=O)[C@@H](Cc1c[nH]c2ccccc12)NC(=O)CNC(=O)[C@@H](CCCCN)NC(=O)[C@H]1CCCN1C(=O)[C@H](NC(C)=O)C(C)C)C(=O)N[C@H](CO)C(=O)N[C@H](Cc1ccc(O)cc1)C(=O)N[C@H](CO)C(N)=O [compound 810, vpkGwrahemsys] | no increase in cAMP activity | – |
| – | CSCC[C@@H](NC(=O)[C@@H](CCC(=O)O)NC(=O)[C@@H](Cc1c[nH]cn1)NC(=O)[C@@H](Cc1ccccc1)NC(=O)[C@@H](C)NC(=O)[C@@H](Cc1c[nH]c2ccccc12)NC(=O)CNC(=O)[C@@H](CCCCN)NC(=O)[C@H]1CCCN1C(=O)[C@H](NC(C)=O)C(C)C)C(=O)N[C@H](CO)C(=O)N[C@H](Cc1ccc(O)cc1)C(=O)N[C@H](CO)C(N)=O [compound 811, vpkGwafhemsys] (Ac-[dV][dP][dK]G[dW][dA][dF][dH][dE][dM][dS][dY][dS]-NH2) | no increase in cAMP activity | – |
| – | CSCC[C@@H](NC(=O)[C@@H](CCC(=O)O)NC(=O)[C@@H](Cc1c[nH]cn1)NC(=O)[C@@H](Cc1ccccc1)NC(=O)[C@@H](CCCNC(=N)N)NC(=O)[C@@H](C)NC(=O)CNC(=O)[C@@H](CCCCN)NC(=O)[C@H]1CCCN1C(=O)[C@H](NC(C)=O)C(C)C)C(=O)N[C@H](CO)C(=O)N[C@H](Cc1ccc(O)cc1)C(=O)N[C@H](CO)C(N)=O [compound 812, vpkGarfhemsys] (Ac-[dV][dP][dK]G[dA][dR][dF][dH][dE][dM][dS][dY][dS]-NH2) | no increase in cAMP activity | – |
| 13.5 | CSCC[C@@H](NC(=O)[C@@H](CCC(=O)O)NC(=O)[C@@H](CCCNC(=N)N)NC(=O)[C@@H](Cc1ccccc1)NC(=O)[C@@H](CCCNC(=N)N)NC(=O)[C@@H](Cc1c[nH]c2ccccc12)NC(=O)CNC(=O)[C@@H](CCCCN)NC(=O)[C@H]1CCCN1C(=O)[C@H](NC(C)=O)C(C)C)C(=O)N[C@H](CO)C(=O)N[C@H](Cc1ccc(O)cc1)C(=O)N[C@H](CO)C(N)=O [compound 872, vpkGwrfremsys] | – | EC50 [1]: 2000 nM |
| 1900 | CSCC[C@@H](NC(=O)[C@@H](CCC(=O)O)NC(=O)[C@@H](Cc1c[nH]c2ccccc12)NC(=O)[C@@H](Cc1ccccc1)NC(=O)[C@@H](CCCNC(=N)N)NC(=O)[C@@H](Cc1c[nH]c2ccccc12)NC(=O)CNC(=O)[C@@H](CCCCN)NC(=O)[C@H]1CCCN1C(=O)[C@H](NC(C)=O)C(C)C)C(=O)N[C@H](CO)C(=O)N[C@H](Cc1ccc(O)cc1)C(=O)N[C@H](CO)C(N)=O [compound 873, vpkGwrfwemsys] (Ac-[dV][dP][dK]G[dW][dR][dF][dW][dE][dM][dS][dY][dS]-NH2) | – | – |
| 400 | CSCC[C@@H](NC(=O)[C@@H](CC(=O)O)NC(=O)[C@@H](Cc1c[nH]cn1)NC(=O)[C@@H](Cc1ccccc1)NC(=O)[C@@H](CCCNC(=N)N)NC(=O)[C@@H](Cc1c[nH]c2ccccc12)NC(=O)CNC(=O)[C@@H](CCCCN)NC(=O)[C@H]1CCCN1C(=O)[C@H](NC(C)=O)C(C)C)C(=O)N[C@H](CO)C(=O)N[C@H](Cc1ccc(O)cc1)C(=O)N[C@H](CO)C(N)=O [compound 875, vpkGwrfhdmsys] (Ac-[dV][dP][dK]G[dW][dR][dF][dH][dD][dM][dS][dY][dS]-NH2) | – | – |
| 282 | CSCC[C@@](C)(NC(=O)[C@@H](CCC(=O)O)NC(=O)[C@@H](Cc1c[nH]cn1)NC(=O)[C@@H](Cc1ccccc1)NC(=O)[C@@H](CCCNC(=N)N)NC(=O)[C@@H](Cc1c[nH]c2ccccc12)NC(=O)CNC(=O)[C@@H](CCCCN)NC(=O)[C@H]1CCCN1C(=O)[C@H](NC(C)=O)C(C)C)C(=O)N[C@H](CO)C(=O)N[C@H](Cc1ccc(O)cc1)C(=O)N[C@H](CO)C(N)=O [compound 877, vpkGwrfhe(α-methyl-D-Met)sys] | – | – |
| 832 | CC(=O)N[C@@H](C(=O)N1CCC[C@@H]1C(=O)N[C@H](CCCCN)C(=O)NCC(=O)N[C@H](Cc1c[nH]c2ccccc12)C(=O)N[C@H](CCCNC(=N)N)C(=O)N[C@H](Cc1ccccc1)C(=O)N[C@H](Cc1c[nH]cn1)C(=O)N[C@H](CCC(=O)O)C(=O)N[C@H](CCCCN)C(=O)N[C@H](CO)C(=O)N[C@H](Cc1ccc(O)cc1)C(=O)N[C@H](CO)C(N)=O)C(C)C [compound 879, vpkGwrfheksys] (Ac-[dV][dP][dK]G[dW][dR][dF][dH][dE][dK][dS][dY][dS]-NH2) | – | – |
| – | CCCCCCCCCCCCCCCCCC(=O)NCCCCCCNC(=O)[C@@H](Cc1c[nH]cn1)NC(=O)[C@H](Cc1ccccc1)NC(=O)[C@@H](CCCNC(=N)N)NC(=O)[C@@H](Cc1c[nH]c2ccccc12)NC(C)=O [compound 882, wrFh] (Ac-[dW][dR]F[dH]-X1) | – | improvement of binding to MC1R by stearyl addition to the core tetrapeptide (MC1R; relative to the unmodified tetrapeptide): > 250 fold |
| 72 | CSCC[C@@H](NC(=O)[C@@H](CCC(=O)O)NC(=O)[C@@H](Cc1c[nH]cn1)NC(=O)[C@H](Cc1ccccc1)NC(=O)[C@@H](CCCNC(=N)N)NC(=O)[C@@H](Cc1c[nH]c2ccccc12)NC(=O)CNC(=O)[C@@H](CCCCN)NC(=O)[C@H]1CCCN1C(=O)[C@H](NC(C)=O)C(C)C)C(=O)N[C@H](CO)C(=O)N[C@H](Cc1ccc(O)cc1)C(=O)N[C@H](CO)C(N)=O [compound 884, vpkGwrFhemsys] | – | Ki (MC5R): > 30 µM; Ki (MC3R): > 30000 nM; reduction in binding to MC1R, inversion of D-Phe to L-Phe in the RI sequence (MC1R; relative to RI-MSH): 20 fold |
| 0.51 | CSCC[C@H](NC(=O)[C@H](CO)NC(=O)[C@H](Cc1ccc(O)cc1)NC(=O)[C@H](CO)NC(C)=O)C(=O)N[C@@H](CCC(=O)O)C(=O)N[C@@H](Cc1c[nH]cn1)C(=O)N[C@@H](CC1CCCCC1)C(=O)N[C@@H](CCCNC(=N)N)C(=O)N[C@@H](Cc1c[nH]c2ccccc12)C(=O)NCC(=O)N[C@@H](CCCCN)C(=O)N1CCC[C@H]1C(=O)N[C@H](C(N)=O)C(C)C [compound 892, SYSMEH(L-Cha)RWGKPV] | – | EC50 [1]: 21 nM |

— patent US10385108B2, “Peptide analogs of alpha-melanocyte stimulating hormone” (Genzyme Corporation, priority 2008, dated 2019)
